Source: US20120004172A1, “SCREENING METHOD OF ANTI-LUNG OR ESOPHAGEAL CANCER COMPOUNDS” (Oncotherapy Science, Inc., priority 2008, published 2012)

Experiments:
[1] = tested on: ERK; conditions: EGF stimulation
Protocol: (§1) [FIG. 5] […] B, Non-tagged CDCA5 expressing vector was transfected to HeLa cells. After starving the cells in FBS free for 20 hours, EGF stimulations were performed at 5, 10, 20, 30 minutes. 10 uM U0126 treatment was performed for 1 hour.
[FIG. 6A] […] A, ERK1 or ERK2 expressing vector was co-transfected with non-tagged CDCA5 expressing vector to HeLa cells. After starvation of HeLa cells in FBS free for 20 hours, the cells were stimulated with 50 ng/ml EGF for 5, 10, 20, 30 minutes, respectively. 10 uM U0126 treatment was performed for 1 hour before EGF stimulation.
(§2) Cultured cervical squamous cell carcinoma HeLa cells were cultured in FCS free medium for 20 hours. Then, the cells were stimulated by […] EGF for 20 min with or without 10 micro-M MEK inhibitor U0126 (Promega).

[2] = tested on: CDCA5
Protocol: as §1, §2

[3] = cited from earlier work
[4] = tested on: A549 lung cancer cell line; assay: Growth assay (MTT) after transfection of CDCA5 mutant vectors, A549; assay type: cell-based, human; conditions: MTT at 6th day after transfection; compared with mock and wild type vectors
Protocol: (§3) [FIG. 7A] The function of ERK-dependent phosphorylation sites in cancer cells. […] Growth assay was performed using A549 and LC319 lung cancer cell lines transfected with mock, wild type and CDCA5 alanine substitute vectors. MTT assay was performed at 6th day after transfection.
(§4) [FIG. 7B] The function of ERK-dependent phosphorylation sites in cancer cells. B, Growth assay was performed using LC319 and A549 lung cancer cell line which was transfected with mock, wild type and CDCA5 phospho-mimicking mutant vectors. MTT assay was performed at 6th day after transfection.
(§5) Cell growth may be measured by methods known in the art, e.g., using the MTT cell proliferation assay; briefly, cell-counting kit-8 solution (DOJINDO) is added to each dish at a concentration of 1/10 volume, and the plates are incubated at 37 degree Centigrade (C) for additional 2 hours. Absorbance is then measured at 450 nm as a reference, with a Microplate Reader 550 (BIO-RAD, Hercules, Calif.).

[5] = tested on: LC319 lung cancer cell line; assay: Growth assay (MTT) after transfection of CDCA5 mutant vectors, LC319; assay type: cell-based, human; conditions: MTT at 6th day after transfection; compared with mock and wild type vectors
Protocol: as §3, §4, §5

N#CC(=C(/N)Sc1ccccc1N)/C(C#N)=C(\N)Sc1ccccc1N [U0126]
activation of exogenous ERK1 or 2 as well as endogenous ERK ([1]; HeLa cells transfected with ERK1 or ERK2 and CDCA5 vectors, 10 uM U0126 for 1 hour before EGF): but not in U0126 MEK inhibitor treatment | levels of ERK phosphorylation ([1]; serum-starved HeLa cells, 10 micro-M U0126): reduced the levels of ERK phosphorylation | upper shift of endogenous CDCA5 band ([2]; serum-starved HeLa cells, EGF stimulation, 10 micro-M U0126): completely inhibited the upper shift of CDCA5 band | signal of spot no. 2 of myc-tagged CDCA5 increased by EGF stimulation ([2]; transfected HeLa cells, 2D-Western-blotting with anti-myc antibody, U0126 treatment): also reduced | EGF-induced shifted spots (no. 3 and 4) with more acidic pI of myc-tagged CDCA5 ([2]; transfected HeLa cells, 2D-Western-blotting with anti-myc antibody, pre-incubation with U0126): significantly reduced

C#Cc1cccc(Nc2ncnc3cc(OCCOC)c(OCCOC)cc23)c1 [erlotinib]
median survival ([3]; NSCLC, placebo 4.7 months (NPL 10)): 6.7 months

COc1cc2ncnc(Nc3ccc(F)c(Cl)c3)c2cc1OCCCN1CCOCC1 [gefitinib]
response rate and symptom control ([3]; NSCLC (NPL 11)): superior response rate and symptom control

Ser209 alanine substitute: CDCA5 mutant, alanine at position 209 (SEQ ID NO: 7), expressed from transfected vector; dominant negative
growth of A549 cells (MTT assay) [4]: inhibited the growth | growth of LC319 cells (MTT assay) [5]: inhibited the growth
